This assay has as its system T1, C11-GH1.
T1 construct: gene C11_GH1; Full ORF in pET28 (NdeI/XhoI), E. coli BL21(DE3), Ni-NTA; text says C-terminal His tag but reverse primer carries a stop codon; Primer-derived: N-term (M)VAFSDKFL (native GTG start), C-term SRNGKNL, nucleophile region LPLIITENGMADND
Description: fluorogenic hydrolysis, MU release. The following applies: 20 mM HEPES, 300 mM NaCl, pH 7.0, 37°C; read-out: Mean Km (mM) ± SD. In kind it is biochemical. An excerpt:
fluorogenic hydrolysis, MU release on C11-GH1
Take `Cc1cc(=O)oc2cc(O[C@@H]3O[C@H](CO)[C@H](O)[C@H](O)[C@H]3O)ccc12` [Gal MU]: the Km (as a rule, the substrate concentration at which the rate is half of its maximum) was determined as 0.05 ± 0.02 mM.
With `Cc1cc(=O)oc2cc(O[C@@H]3O[C@H](CN=[N+]=[N-])[C@@H](O)[C@H](O)[C@H]3O)ccc12` [6-N3-Glc MU], the Km came to 0.05 ± 0.01 mM.
For `Cc1cc(=O)oc2cc(O[C@@H]3O[C@H](CN=[N+]=[N-])[C@H](O)[C@H](O)[C@H]3O)ccc12` [6-N3-Gal MU, 4-methylumbelliferyl 6-azido-6-deoxy-β-D-galactoside], the Km was 0.1 ± 0.02 mM.
Under `Cc1cc(=O)oc2cc(O[C@@H]3O[C@H](CO)[C@@H](O)[C@H](O)[C@H]3O)ccc12` [Glc MU] stands 0.2 ± 0.03 mM.

Source of the values: article PMC6550366, “High-Throughput Recovery and Characterization of Metagenome-Derived Glycoside Hydrolase-Containing Clones as a Resource for Biocatalyst Development” (mSystems, 2019).
